Laboratory results reported in publication PMC10845965, “Gold(I) ion and the phosphine ligand are necessary for the anti-Toxoplasma gondii activity of auranofin” (Microbiology Spectrum, 2024).
Several values for one entry are separate records, joined by “and”; a condition that tells them apart may be missing. Equal entries are not always repeated. Entries after “also recorded” stand apart in the source; their conditions may differ. Where two headings read alike, the source gives them in different places.

Tests used:
[1] = tested on: Leishmania spp. (promastigotes and amastigotes); parameters: method as in PMID 24328400; conditions: cited from earlier work
RH T. gondii = assay: Plaque assay and IC50 determination; assay type: cell-based, Toxoplasma gondii; conditions: plaque assay, 5 days; for inhibition of T. gondii growth in vitro: 0–40 µM
Experimental: We measured the inhibition of parasite growth by plaque assay as modified from a previously established method ([27], [28]). Confluent monolayers of HFF in six-well plates were inoculated with 1 × 10^2 parasites of RH T. gondii. Immediately after, each well received D10 containing specified concentrations of each compound. Plates were incubated undisturbed for 5 days at 37°C in a humidified incubator with 5% CO2. On the fifth day, each well was rinsed once with phosphate-buffered saline (PBS), fixed with 4% paraformaldehyde (15 min at room temperature), and stained with crystal violet for 2–3 min. Plaques (visualized as irregular clear areas of cell lysis against the violet background of intact host cells) were enumerated for each well. To generate the inhibition curve, plaque numbers (represented as a percentage of plaques relative to the no drug control) were plotted vs drug concentration. The IC50 value was calculated from the inhibitor vs normalized response curve with variable slope. The results represented the average of three independent IC50 assays ± standard error of the mean.

HFF host cells = assay: Host cell viability and TD50 determination; assay type: cell-based, human; conditions: 5 days incubation, tetrazolium assay
Experimental: Confluent monolayers of HFF host cells (approximately 1 × 10^4) plated in clear bottom 96-well plates were treated with twofold dilutions of compounds of interest. After 5 days of incubation, 15 µL of dye solution (tetrazolium salt) was added to each well. The plates were incubated at 37°C for 4 hours; then, the reaction was stopped to solubilize the formazan product (Cell Titer 96 Nonradioactive Cell Proliferation Assay Promega). Absorbance at 570 ʎ (A570) was recorded using a multimode microplate plate reader (Molecular Devices Spectramax i5, SoftMax Pro 7.0.2 Software). The A570 absorbance reading is directly proportional to the number of viable cells. The values are presented as percentages of cell viability relative to the untreated controls (defined as 100% survival) and plotted against the log of compound concentrations. The log (auranofin derivative) vs cell viability curve with variable slope was generated to calculate TD50 values.

[2] = tested on: extracellular T. gondii RH parasites; assay: Annexin V assay (phosphatidylserine externalization); assay type: cell-based, Toxoplasma gondii; conditions: auranofin 2.5 µM, 24 hours; control 11.2 ± 2.937
Experimental: (§1) A confluent monolayer of HFF was infected with purified RH parasites (freshly mechanically released by needle and filtered through a 3 µm filter). The monolayer remained undisturbed for 24 hours to allow for invasion and replication. On the day of treatment, extracellular parasites were mechanically released and harvested after differential centrifugation ([35]) at 35 × g for 5 minutes to prevent parasite loss before processing. The supernatant was then collected and centrifuged at 1,350 × g for 10 minutes to pellet the extracellular parasites. Parasites were plated in a 12-well plate (2.7 × 10^7 per well) into 1 mL of D10 in DMSO (control) or auranofin (2.5 µM) containing media and incubated for 24–48 hours at 37°C with 5% CO2 before collection.
Given the smaller size of parasites after auranofin treatment, we evaluated whether T. gondii death occurred by apoptosis via Annexin V assays (Invitrogen). After 24 hours of treatment, parasites were collected, washed with PBS, and resuspended in Annexin binding buffer (10 mM HEPES, 140 mM NaCl, and 2.5 mM CaCl2, pH 7.4) at a concentration of 10^6 parasites per mL. One hundred microliters of this parasite suspension was stained with Annexin V-Alexa fluor conjugate before flow cytometry analysis. A t-test was used to determine the statistical difference between control or auranofin treatment groups from three independent experiments.

[3] = tested on: YFP+ RH parasites (T. gondii) invading HFF; assay: Invasion assay; assay type: cell-based, Toxoplasma gondii
Experimental: We performed invasion assays with or without pre-treatment of T. gondii tachyzoites with auranofin, as modified from previously described assays ([28][–][31]). We used RH parasites expressing YFP ([32]). First, we determine the best concentration of auranofin to achieve stable host cell morphology and viability (HFF) while maximizing the effect of auranofin in T. gondii by titration of auranofin (doses ranging from 1 to 5 µM). The best auranofin dose fitting our criteria was 3 µM. Therefore, we performed a modified invasion assay using 2.5 × 10^6 parasites freshly lysed YFP+ RH parasites ([29]) that were filtered and centrifuged before each assay as follows: […]
After the 30-min invasion, all host cells were washed with PBS and fixed with 4% paraformaldehyde, blocked with 3% bovine serum albumin (BSA), and then incubated with anti-SAG-1 antibody (DG52) (David Sibley, Washington University in St. Louis) ([4]) for 1 hour, followed by incubation with goat anti-mouse IgG conjugated to Alexa-594 fluorophore (A19069, Thermo Fisher). For quantification, eight randomly selected fields (with a minimum of 300 parasites) were counted for each sample. […] The invasion rate was calculated by dividing the number of intracellular parasites by the total number of parasites counted.

[4] = tested on: YFP+ RH parasites (T. gondii) in HFF; assay: Replication assay; assay type: cell-based, Toxoplasma gondii
Experimental: Confluent HFF monolayers were infected with 5 × 10^5 YFP+ RH parasites in coverslips. Following 1-hour incubation at 37°C to allow for invasion, the monolayer was rinsed with PBS, and D10 in DMSO (control) or auranofin containing (2.5 µM) media was added back. Coverslips were then incubated for 24 hours to allow for parasite replication. Coverslips were then fixed in 4% paraformaldehyde and mounted with DAPI-containing mounting media. Parasites were identified as DAPI+/YFP+ under fluorescence microscopy. The number of parasites per parasitophorous vacuole was counted across 10 random fields of view per coverslip. At least 100 parasitophorous vacuoles (PV) per condition were counted from three independent experiments. Results were grouped into the following categories according to the number of parasites per PV: 1, 2, 4, and >4 parasites. A chi-square trend test was used to determine the statistical difference between the PV category of the control and auranofin treatment from three independent experiments.

[5] = tested on: extracellular T. gondii RH parasites; assay: Parasite size by flow cytometry (forward scatter); assay type: cell-based, Toxoplasma gondii; conditions: auranofin 2.5 µM
Experimental: as §1
Parasite size after treatment with auranofin was determined by flow cytometry (forward scattering). At the end of each incubation time, parasites (1 × 10^5) were resuspended in 1 mL of PBS to prepare them for flow cytometry.

T. gondii in HFF = assay: Egress assay (LDH release); assay type: cell-based, Toxoplasma gondii; conditions: 30 hours infection, then 40 min with A23187 5 µM, zaprinast 57 µM or auranofin 5 µM
Experimental: The egress assay was modified from previously published methods to measure lactate dehydrogenase (LDH) content as a function of egress (host membrane damage induced by parasite egress) ([33], [34]). Confluent monolayers of HFF in a 24-well plate were inoculated with 5 × 10^5 parasites (freshly mechanically released by needle and filtered through a 3 µm filter) for 30 hours before each drug treatment in three technical triplicates. These infected HFF monolayers were rinsed with 37°C Ringer’s solution (Ward’s Science) three times and supplied with 5 µM calcium ionophore A23187 (ACROS), 57 µM Zaprinast (Alfa Aesar), 5 µM auranofin (Enzo Life Sciences), or DMSO control (all in 5 µl) for 40 min in 5% CO2 and 37°C. The culture supernatant was collected from wells and centrifuged at 4°C and 500 g for 5 min. The solution was kept at 4°C and assayed immediately for the LDH content. The A490 reading is directly proportional to a known amount of LDH (standard curve) (CytoTox 96 Nonradioactive Cytotoxicity Assay, Promega). Egress induced by each drug is presented as a relative value after subtracting control levels of LDH induced by DMSO alone (the solvent for all drugs included in this assay) from the levels of LDH induced by the drugs. A t-test to determine the statistical difference between the relative egress triggered by auranofin and A23187 or auranofin and Zaprinast from three independent experiments was used.

[6] = HFF infected with RH T. gondii, read-out: IC50 (inhibition of parasite growth)
[7] = Fig 7, unit inferred, read-out: IC50

Which “toxicity to host cells compared with auranofin” value [1] does the source give for `[Cl][Au].c1ccc(P(c2ccccc2)c2ccccc2)cc1` [Compound 31] here?
The value was “less toxic to host cells than auranofin and compounds 6, 10, and 39”.

What about the “antiparasitic activity against Leishmania spp. compared with auranofin” value ([1]; extracellular and intracellular forms) of the same compound?
The value was “higher IC50 than auranofin”.

What about the IC50 (RH T. gondii; [6]) of the same compound?
Its IC50 is 1410 nM.

What about the “TD50 (cytotoxicity in host cells)” value (HFF host cells) of the same compound?
The value was 178 µM.

With `O=C(O)CC([S-])C(=O)O.[Au+]` (stereo not drawn) [Aurothiomalate, aurothiomalate] as the compound, how does the “inhibition of T. gondii growth in vitro” value (RH T. gondii) read?
The value was “neither aurothioglucose nor aurothiomalate inhibited the growth; also recorded: did not display inhibitory activity”.

For `OC[C@H]1O[C@H]([S-])[C@H](O)[C@@H](O)[C@@H]1O.[Au+]` [Aurothioglucose, aurothioglucose], which “inhibition of T. gondii growth in vitro” value (RH T. gondii) is on record?
The value was “did not display inhibitory activity”.

And the “inhibition of T. gondii growth in vitro” value (RH T. gondii; listed as aurothioglucose)?
Its value is “neither aurothioglucose nor aurothiomalate inhibited the growth”.

With `CC(=O)OC[C@H]1O[C@@H]([S-])[C@H](OC(C)=O)[C@@H](OC(C)=O)[C@@H]1OC(C)=O.CCP(CC)CC.[Au+]` [Auranofin] as the compound, how does the “phosphatidylserine externalization (PS) by Annexin V assay” value [2] read?
Its value is 29.16 ± 3.615 relative fluorescent units.

What about the “invasion rate (T. gondii that successfully invaded host cells)” value ([3]; parasites pre-treated with auranofin 3 µM for 30 min before invasion, control 35%) of the same compound?
The value was 18%.

What about the “invasion rate (T. gondii that successfully invaded host cells)” value ([3]; without pre-treatment, auranofin 3 µM during 30 min invasion, control 59%) of the same compound?
Its value is 60%.

And the “host cell monolayer integrity” value ([4]; HFF monolayer, 24 hours of auranofin treatment)?
Its value is “did not show changes in the monolayer integrity”.

And the “effect on parasite replication (parasites per parasitophorous vacuole)” value ([4]; auranofin 2.5 µM for 24 hours after 1 hour invasion)?
Its value is “did not inhibit parasite replication”.

What about the “parasite size (FSC-H)” value ([5]; 24 hours, control 201.2 ± 4.064) of the same compound?
The value was 152.7 ± 8.225.

And the “parasite size (FSC-H)” value ([5]; 48 hours, control 169.9 ± 66.25)?
Its value is 123.5 ± 7.339.

What about the IC50 (RH T. gondii; [7]) of the same compound?
The IC50 was 560 nM.

What about the “relative egress level (LDH, normalized to DMSO)” value (T. gondii in HFF) of the same compound?
Its value is 0.2768 ± 0.034.

And the “relative egress level (LDH, normalized to DMSO)” value (T. gondii in HFF; listed as auranofin)?
Its value is 0.2768 ± 0.03435 and 0.3272 ± 0.009.

And the “TD50 (cytotoxicity in host cells)” value (HFF host cells)?
Its value is 5.14 µM.

Which “relative egress level (LDH, normalized to DMSO)” value (T. gondii in HFF) does the source give for `CNc1ccc2oc(C[C@H]3O[C@@]4(CC[C@H]3C)O[C@H]([C@H](C)C(=O)c3ccc[nH]3)[C@H](C)C[C@H]4C)nc2c1C(=O)O` [A23187] here?
Its value is 0.4533 ± 0.01148.

With `[Cl][Au][PH](Cc1ccccc1)(c1ccccc1)c1ccccc1` [Compound 6] as the compound, how does the IC50 (RH T. gondii; [7]) read?
The IC50 was 450 nM.

And the IC50 (RH T. gondii; [6])?
Its IC50 is 460 nM.

What about the “TD50 (cytotoxicity in host cells)” value (HFF host cells) of the same compound?
Its value is 4.87 µM.

With `CCCOc1ccccc1-c1nc2nn[nH]c2c(=O)[nH]1` [Zaprinast, zaprinast] as the compound, how does the “relative egress level (LDH, normalized to DMSO)” value (T. gondii in HFF) read?
The value was 0.3272 ± 0.009.

And the “relative egress level (LDH, normalized to DMSO)” value (T. gondii in HFF; listed as zaprinast)?
The value was 0.2768 ± 0.034.
